The record followed here is US12052991B2, “Substituted pyridinyloxybenzenes and salts thereof and use thereof as herbicidal agents” (Bayer Aktiengesellschaft, priority 2018, dated 2024).

Common to all, as to format: in vivo
Experiment [1] deals with Alopecurus myosuroides (ALOMY). Kind of experiment: Herbicidal post-emergence action (Table B9). The following applies: rated visually after about 3 weeks, 100% = plants have died, 0% = like control plants. The method in brief:
(§1)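 Activity was scored visually against untreated plants roughly 3 weeks after treatment, 0% meaning like control and 100% plant death. Application was post-emergence onto green parts at the one-leaf stage, as aqueous suspension/emulsion with 0.5% additive, 600 l/ha, delivering 1280 or 320 g/ha to greenhouse plants in sandy loam.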

Experiment [2] relates to Abutilon theophrasti (ABUTH). Kind of experiment: Herbicidal post-emergence action (Table B5). The following applies: rated visually after about 3 weeks, 100% = plants have died, 0% = like control plants. In a few lines: as §1
Experiment [3] concerns Veronica persica (VERPE). Kind of experiment: Herbicidal post-emergence action (Table B12). The following applies: visual rating about 3 weeks after treatment, 100% = plants have died, 0% = like control plants. The method in brief: as §1
In experiment [4] the test system is Digitaria sanguinalis (DIGSA). As to the kind of experiment: Herbicidal post-emergence action (Table B10). As to conditions: visual rating about 3 weeks after treatment, 100% = plants have died, 0% = like control plants. The method in brief: as §1
In experiment [5] the test system is harmful plants ABUTH, AMARE, ECHCG, LOLRI, MATIN, POAAN, SETVI, STEME, ALOMY, DIGSA, KCHSC and VERPE. Kind of experiment: Herbicidal post-emergence action, summary of Tables B1-B12. As to conditions: application rate of 1280 or 320 g of active ingredient per hectare; summary in words. In a few lines: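 Activity scored by eye roughly 3 weeks post-treatment against untreated plants, from 0% (no effect) to 100% (plants dead). Application rates were 1280 or 320 g/ha, as aqueous WP/EC spray plus 0.5% additive at 600 L/ha, onto one-leaf-stage weeds grown 2–3 weeks in sandy loam.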

The test system is the same in experiment [6]. As to the kind of experiment: Herbicidal pre-emergence action (test C), summary of Tables C1-C12. The following applies: application rate of 1280 or 320 g of active ingredient per hectare; summary in words. In a few lines:
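Visual % damage versus untreated plants (0% = like control, 100% = died) was scored after about 3 weeks in the greenhouse. Before emergence, seeds sown in sandy loam got a soil-surface spray of compound as WP or EC plus 0.5% additive, using 600 L/ha water at rates of 1280 or 320 g/ha.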

Experiment [7] has as its system Veronica persica (VERPE). Kind of experiment: Herbicidal pre-emergence action, test C (Table C12). As to conditions: visual scoring vs untreated controls. The method in brief:
(§2)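 Visual percentage damage relative to untreated pots (0% = like control, 100% = dead) was rated roughly 3 weeks after pre-emergence treatment in the greenhouse. Sandy loam pots were sown with weed seeds and covered with soil. The surface was sprayed with WP or EC formulations plus 0.5% additive at 600 L/ha, delivering 1280 or 320 g/ha.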

Experiment [8] has as its system Poa annua (POAAN). Kind of experiment: Herbicidal post-emergence action (Table B3). The following applies: rated visually after about 3 weeks, 100% = plants have died, 0% = like control plants. The method in brief:
as §1

The test system of experiment [9] is Matricaria inodora (MATIN). As to the kind of experiment: Herbicidal pre-emergence action, test C (Table C7). As to conditions: dosage 1280 g/ha; visual scoring after about 3 weeks; 100% = plants have died, 0% = like control plants. The method in brief: as §2
Experiment [10] has as its system Echinochloa crus-galli (ECHCG). As to the kind of experiment: Herbicidal post-emergence action (Table B1). The following applies: rated visually after about 3 weeks, 100% = plants have died, 0% = like control plants. The method in brief:
as §1

The subject of experiment [11] is Echinochloa crus-galli (ECHCG). As to the kind of experiment: Herbicidal pre-emergence action, test C (Table C1). As to conditions: dosage 1280 g/ha; visual scoring after about 3 weeks; 100% = plants have died, 0% = like control plants. The method in brief:
as §2

Experiment [12] relates to Lolium rigidum (LOLRI). As to the kind of experiment: Herbicidal pre-emergence action, test C (Table C2). The following applies: dosage 1280 g/ha; visual scoring after about 3 weeks; 100% = plants have died, 0% = like control plants. In a few lines:
as §2

For experiment [13], the system named is Digitaria sanguinalis (DIGSA). Kind of experiment: Herbicidal pre-emergence action, test C (Table C10). The following applies: visual scoring after about 3 weeks, 100% = plants have died, 0% = like control plants. The method in brief: as §2
Experiment [14] concerns Bassia scoparia (KCHSC). As to the kind of experiment: Herbicidal post-emergence action (Table B11). As to conditions: visual rating about 3 weeks after treatment, 100% = plants have died, 0% = like control plants. The method in brief:
as §1

Experiment [15] has as its system Lolium rigidum (LOLRI). Kind of experiment: Herbicidal post-emergence action (Table B2). The following applies: 1280 g/ha; rated visually after about 3 weeks; 100% = plants have died, 0% = like control plants. On the procedure:
(§3) Seeds of mono- and dicotyledonous weed plants were placed in plastic pots in sandy loam soil (doubly sown with in each case one species of mono- or dicotyledonous weed plants per pot), covered with soil and cultivated in a greenhouse under controlled growth conditions. 2 to 3 weeks after sowing, the test plants were treated at the one-leaf stage. The compounds of the invention, formulated in the form of wettable powders (WP) or as emulsion concentrates (EC), were applied onto the green parts of the plants as aqueous suspension or emulsion with addition of 0.5% additive at a water application rate of 600 liters per hectare (converted). After the test plants had been kept in the greenhouse under optimum growth conditions for about 3 weeks, the activity of the preparations was rated visually in comparison to untreated controls. For example, 100% activity=the plants have died, 0% activity=like control plants. Tables B1 to B12 below show the effects of selected compounds of the general formula (I) according to Table 1 on various harmful plants and an application rate corresponding to 1280 or 320 g/ha, which were obtained by the experimental procedure mentioned above.

The test system of experiment [16] is Amaranthus retroflexus (AMARE). Kind of experiment: Herbicidal post-emergence action (Table B6). As to conditions: visual rating about 3 weeks after treatment, 100% = plants have died, 0% = like control plants. The method in brief: as §1
Experiment [17] has as its system Stellaria media (STEME). Kind of experiment: Herbicidal post-emergence action (Table B8). As to conditions: visual rating about 3 weeks after treatment, 100% = plants have died, 0% = like control plants. The method in brief:
as §1

Experiment [18] deals with Setaria viridis (SETVI). Kind of experiment: Herbicidal post-emergence action (Table B4). The following applies: 1280 g/ha; rated visually after about 3 weeks; 100% = plants have died, 0% = like control plants. In a few lines: as §1
Experiment [19] has as its system Stellaria media (STEME). As to the kind of experiment: Herbicidal pre-emergence action, test C (Table C8). As to conditions: visual scoring after about 3 weeks, 100% = plants have died, 0% = like control plants. In a few lines:
as §2

Experiment [20] deals with Bassia scoparia (KCHSC). Kind of experiment: Herbicidal pre-emergence action, test C (Table C11). The following applies: visual scoring vs untreated controls. In a few lines:
as §2

Experiment [21] deals with Alopecurus myosuroides (ALOMY). Kind of experiment: Herbicidal pre-emergence action, test C (Table C9). The following applies: dosage 1280 g/ha; visual scoring after about 3 weeks; 100% = plants have died, 0% = like control plants. In a few lines: as §2
Experiment [22] concerns Setaria viridis (SETVI). As to the kind of experiment: Herbicidal pre-emergence action, test C (Table C4). As to conditions: visual scoring after about 3 weeks, 100% = plants have died, 0% = like control plants. In a few lines:
as §2

For experiment [23], the system named is Amaranthus retroflexus (AMARE). Kind of experiment: Herbicidal pre-emergence action, test C (Table C6). The following applies: visual scoring after about 3 weeks, 100% = plants have died, 0% = like control plants. The method in brief:
as §2

Experiment [24] has as its system Abutilon theophrasti (ABUTH). Kind of experiment: Herbicidal pre-emergence action, test C (Table C5). The following applies: visual scoring after about 3 weeks, 100% = plants have died, 0% = like control plants. In a few lines:
as §2

The subject of experiment [25] is Poa annua (POAAN). Kind of experiment: Herbicidal pre-emergence action, test C (Table C3). As to conditions: visual scoring after about 3 weeks, 100% = plants have died, 0% = like control plants. In a few lines:
as §2

Experiment [26] concerns Matricaria inodora (MATIN). Kind of experiment: Herbicidal post-emergence action (Table B7). The following applies: 1280 g/ha; rated visually after about 3 weeks; 100% = plants have died, 0% = like control plants. On the procedure: as §3

Take `Fc1ccc(Oc2ncc(Cl)cc2F)c(-c2cc(C(F)F)on2)c1` [Example 1-31]: the “Post-emergence action against Alopecurus myosuroides (ALOMY)” value in experiment [1] (320 g/ha) and in experiment [1] (1280 g/ha) was 100% in each case. Moreover, the “Post-emergence action against Abutilon theophrasti (ABUTH)” value in experiment [2] (320 g/ha) is reported as 90%; in experiment [2] (1280 g/ha), 100%. Besides, the “Post-emergence action against Veronica persica (VERPE)” value in experiment [3] (dosage 320 g/ha) and in experiment [3] (dosage 1280 g/ha) was 100% throughout. Besides, the “Post-emergence action against Digitaria sanguinalis (DIGSA)” value in experiment [4] (dosage 320 g/ha) was 90%; in experiment [4] (dosage 1280 g/ha), 100%. Besides, in experiment [5], the “herbicidal activity against the harmful plants of Tables B1-B12 in post-emergence treatment” value is recorded as “very good herbicidal activity”. For the same compound, the “herbicidal activity against the harmful plants of Tables C1-C12 in pre-emergence treatment” value in experiment [6] is listed as “very good herbicidal activity”. For the same compound, the “Pre-emergence action against Veronica persica (VERPE)” value in experiment [7] (dosage 320 g/ha) and in experiment [7] (dosage 1280 g/ha) was 100% in each case. The “Post-emergence action against Poa annua (POAAN)” value in experiment [8] (320 g/ha) and in [8] (1280 g/ha) was 100% in each case. Moreover, the “Pre-emergence action against Matricaria inodora (MATIN)” value in [9] was determined as 90%. For the same compound, the “Post-emergence action against Echinochloa crus-galli (ECHCG)” value stood at 90% in experiment [10] (320 g/ha) and 100% in experiment [10] (1280 g/ha). Also, the “Pre-emergence action against Echinochloa crus-galli (ECHCG)” value in experiment [11] is reported as 100%. In [12], the “Pre-emergence action against Lolium rigidum (LOLRI)” value came to 100%. Besides, the “Pre-emergence action against Digitaria sanguinalis (DIGSA)” value in [13] (dosage 320 g/ha) was 90%; in experiment [13] (dosage 1280 g/ha) it was 100%. Also, the “Post-emergence action against Bassia scoparia (KCHSC)” value in experiment [14] (dosage 320 g/ha) is given as 90%; in experiment [14] (dosage 1280 g/ha), 100%. For the same compound, in experiment [15], the “Post-emergence action against Lolium rigidum (LOLRI)” value is 90%. Further, the “Post-emergence action against Amaranthus retroflexus (AMARE)” value in [16] (dosage 320 g/ha) and in [16] (dosage 1280 g/ha) was 100% throughout. Moreover, the “Post-emergence action against Stellaria media (STEME)” value in [17] (dosage 320 g/ha) and in [17] (dosage 1280 g/ha) was 100% in each case. In addition, in experiment [18], the “Post-emergence action against Setaria viridis (SETVI)” value is given as 100%. Also, the “Pre-emergence action against Stellaria media (STEME)” value in experiment [19] (dosage 320 g/ha) and in [19] (dosage 1280 g/ha) was 100% in each case. The entries for the “Pre-emergence action against Bassia scoparia (KCHSC)” value in [20] (dosage 320 g/ha) and in experiment [20] (dosage 1280 g/ha) were 90% and 100%, respectively. Also, in experiment [21], the “Pre-emergence action against Alopecurus myosuroides (ALOMY)” value worked out at 100%. Besides, the “Pre-emergence action against Setaria viridis (SETVI)” value in experiment [22] (dosage 320 g/ha) and in experiment [22] (dosage 1280 g/ha) was 100% each time. For the same compound, the “Pre-emergence action against Amaranthus retroflexus (AMARE)” value in experiment [23] (dosage 320 g/ha) and in experiment [23] (dosage 1280 g/ha) was 100% throughout. In addition, the “Pre-emergence action against Abutilon theophrasti (ABUTH)” value in experiment [24] (dosage 320 g/ha) stood at 90%; in [24] (dosage 1280 g/ha) it was 100%. Further, the “Pre-emergence action against Poa annua (POAAN)” value in experiment [25] (dosage 320 g/ha) turned out to be 90%; in experiment [25] (dosage 1280 g/ha), 100%.

`Clc1ccc(Oc2ccccc2-c2ccc(Cl)cn2)nc1` [Example 1-75]: the “Post-emergence action against Alopecurus myosuroides (ALOMY)” value in experiment [1] (1280 g/ha) worked out at 90%. Moreover, the “Post-emergence action against Veronica persica (VERPE)” value in experiment [3] (dosage 1280 g/ha) came out at 100%. Besides, the “herbicidal activity against the harmful plants of Tables B1-B12 in post-emergence treatment” value in experiment [5] is given as “very good herbicidal activity”. In [10] (1280 g/ha), the “Post-emergence action against Echinochloa crus-galli (ECHCG)” value worked out at 100%. Moreover, in [26], the “Post-emergence action against Matricaria inodora (MATIN)” value worked out at 100%.
